Reference: patent US20130190376A1, “METHODS OF USE OF SMALL MOLECULE MODULATORS OF HEPATOCYTE GROWTH FACTOR (SCATTER FACTOR) ACTIVITY” (priority 2010, published 2013)

How the values were obtained:
[1] = tested on: HUVECs; test: Nitric oxide production in endothelial cells (DAF 2-DA fluorescence); format: cell-based, human; settings: HUVECs incubated 24 hours
Experimental: c. HGF and compounds of the invention stimulate nitric oxide production in endothelial cells. HUVECs are incubated with either vehicle, HGF/SF, instant compounds, or SNAP for 24 hours, loaded with the nitric oxide-sensitive fluorescence indicator DAF 2-DA and imaged under a laser scanning confocal microscope.

[2] = tested on: MDCK cells; test: Anti-apoptotic activity in cultured cell lines (adriamycin); format: cell-based; settings: pretreatment; HUVEC and MDCK cell lines
Source text: a. HGF/SF and instant compounds have significant anti-apoptotic activity in cultured cell lines.

[3] = tested on: LX2 cells; test: Antifibrotic activity in hepatic stellate cells; format: cell-based, human; settings: serum starved (activated) LX2 cells
Source text: a. Antifibrotic Activity in Hepatic Stellate Cells.

| Compound | nitric oxide production (DAF 2-DA fluorescence) [1] | cell viability [2] | collagen I mRNA expression [3] |
| --- | --- | --- | --- |
| CC(=O)N[C@@H](C(=O)O)C(C)(C)SN=O (racemic) [SNAP, reference compound] | significant increase in fluorescence | – | – |
| HGF/SF: Scatter factor, also known as hepatocyte growth factor; pleiotropic growth factor, heparin-binding heterodimeric protein | significant increase in fluorescence | significantly improves the cell viability | decrease in collagen I mRNA expression |
